From article PMC8600679, “Substituted Two- to Five-Ring Polycyclic Aromatic Compounds Are Potent Agonists of Atlantic Cod (Gadus morhua) Aryl Hydrocarbon Receptors Ahr1a and Ahr2a” (Environmental Science & Technology, 2021)
Read-outs that look alike come from different tables or passages of the source.

Columns and labels:
[1] = test system: COS-7 cells; experiment: Resazurin reduction viability assay; type: cell-based, simian; conditions: highest concentrations used; relative to 0.5% DMSO solvent control
Method: COS-7 simian kidney cells were seeded onto 96 well plates (10 000 cells/well) in Dulbecco’s modified Eagle’s medium (DMEM) with phenol red, supplemented with 10% fetal bovine serum (FBS), 4 mM L-glutamate, 1 mM sodium pyruvate, and 100 U/mL penicillin–streptomycin (Merck KGaA, Darmstadt, Germany), and cultivated at 37 °C with 5% CO2 for 24 h. Cells were transiently co-transfected with a eukaryotic expression plasmid (pcDNA3.1/Zeo(+), 31 ng/well), pcDNA3.1/Zeo(+)-based plasmids encoding gmAhr1a or gmAhr2a (3 ng/well), gmArnt1 (6 ng/well),[37] a luciferase reporter plasmid containing four DREs (pGudLuc6.1, 30 ng/well), and a β-galactosidase normalization plasmid (pCMV-βGAL, 30 ng/well),[45],[46] using a Mirus TransIT LT-1 transfection reagent according to the recommendations of the supplier. COS-7 cells were seeded and cultivated in DMEM (4500 mg/L glucose), supplemented with 10% FBS, 1 mM sodium pyruvate, and 4 mM L-glutamine. In the exposure medium, FBS was substituted with 10% charcoal-stripped FBS (VWR International, Radnor). To create the exposure media with the highest test concentration, compounds solved in dimethyl sulfoxide (DMSO) were diluted 1:200 in exposure medium, resulting in exposure media with 1× test compound and 0.5% DMSO. The highest concentration exposure media were serially diluted five times (1:2 for the first dilution, then 1:5) in exposure medium supplemented with 0.5% DMSO. Following transfection, cells were incubated in exposure media containing PACs or solvent control (0.5% DMSO) for 24 h. Reporter gene assays were repeated at least three times and with three technical replicates per exposure. TCDD (30 pM to 100 nM) was used as a known agonist in each experiment. Absorbance and luminescence measurements were performed on an EnSpire Multimode plate reader (PerkinElmer, Waltham, MA). While no wavelength filtering was used to measure firefly luciferase activity by luminescence, absorbance measurements to quantify β-galactosidase activity were performed at 420 nm wavelength. The viability of exposed cells was evaluated using the resazurin reduction assay as previously described.[47],[48]
Recorded luminescence was normalized for variation in transfection efficiencies using β-galactosidase enzyme activity. The difference in normalized light units measured in lysates from exposed cells to solvent-exposed cells was calculated and expressed relative to the maximum response in TCDD-exposed cells. Response curves were prepared by nonlinear regression analyses in Prism v7 and used for the determination of half-maximal effective concentration values (EC50) and maximum efficacies (Emax). EC50 values were only determined for compounds that produced a sigmoidal concentration–response curve. Relative effect potencies 25 (REP25) were determined by dividing the EC25 of TCDD by the concentration of PAC necessary to produce a response equal to 25% of the response of TCDD with gmAhrs, essentially as described by Villeneuve et al. and Lam et al.[49],[50] The D’Agostino–Pearson (Ahr activation data) or Kolmogorov–Smirnov (viability data) normality tests were used to confirm the normal distribution of the data. One-way analysis of variance (ANOVA) and Dunnett′s test were used to compare responses at different concentrations of compounds and solvent control mediated via the same Ahr, in addition to comparing metabolic activity in PAC-exposed cells and cells exposed to solvent control in the resazurin reduction assay. Welch′s t-test was used to compare the maximum Ahr-mediated response and potency (Emax and EC50) between Ahr1a or Ahr2a produced by the same test compound (Prism v7).

[2] = target: Atlantic cod Ahr1a (Gadus morhua, UniProt A0A6H1Z2L5); experiment: cell-based; conditions: for Ahr1a REP25: EC25 of TCDD divided by concentration of PAC giving 25% of TCDD response; for Efficacy compared to TCDD with Ahr1a: Welch's t-test, Supporting Table S6; for Activation of Ahr1a (agonist or not): in vitro transactivation
Atlantic cod Ahr1a, sequence (A0A6H1Z2L5 1-957): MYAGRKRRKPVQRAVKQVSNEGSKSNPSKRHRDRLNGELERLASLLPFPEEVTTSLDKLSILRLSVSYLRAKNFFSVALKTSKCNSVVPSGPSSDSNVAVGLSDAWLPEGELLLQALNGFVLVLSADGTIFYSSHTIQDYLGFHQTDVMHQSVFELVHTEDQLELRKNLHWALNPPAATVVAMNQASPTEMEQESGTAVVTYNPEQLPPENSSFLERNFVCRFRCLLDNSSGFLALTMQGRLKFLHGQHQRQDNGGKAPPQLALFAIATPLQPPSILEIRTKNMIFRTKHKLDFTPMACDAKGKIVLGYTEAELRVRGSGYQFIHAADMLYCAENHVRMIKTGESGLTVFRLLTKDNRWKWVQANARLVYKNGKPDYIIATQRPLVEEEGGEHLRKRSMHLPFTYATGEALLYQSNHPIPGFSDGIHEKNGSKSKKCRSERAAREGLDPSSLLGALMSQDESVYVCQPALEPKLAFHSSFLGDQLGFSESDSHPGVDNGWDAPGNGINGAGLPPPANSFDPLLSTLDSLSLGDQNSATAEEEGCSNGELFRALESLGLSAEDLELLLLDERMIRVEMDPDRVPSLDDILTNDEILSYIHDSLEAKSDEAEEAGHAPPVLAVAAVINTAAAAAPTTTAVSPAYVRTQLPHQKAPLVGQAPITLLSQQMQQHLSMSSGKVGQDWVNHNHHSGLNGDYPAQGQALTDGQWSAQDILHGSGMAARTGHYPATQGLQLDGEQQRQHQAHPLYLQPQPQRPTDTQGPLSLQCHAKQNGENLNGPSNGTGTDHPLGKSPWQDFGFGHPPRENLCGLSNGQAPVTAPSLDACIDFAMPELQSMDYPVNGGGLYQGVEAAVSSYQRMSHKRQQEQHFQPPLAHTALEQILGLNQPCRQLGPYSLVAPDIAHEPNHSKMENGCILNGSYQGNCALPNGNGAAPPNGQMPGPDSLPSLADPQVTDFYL
Atlantic cod Ahr1a, sequence (A0A8C5CZZ9 1-645 partner): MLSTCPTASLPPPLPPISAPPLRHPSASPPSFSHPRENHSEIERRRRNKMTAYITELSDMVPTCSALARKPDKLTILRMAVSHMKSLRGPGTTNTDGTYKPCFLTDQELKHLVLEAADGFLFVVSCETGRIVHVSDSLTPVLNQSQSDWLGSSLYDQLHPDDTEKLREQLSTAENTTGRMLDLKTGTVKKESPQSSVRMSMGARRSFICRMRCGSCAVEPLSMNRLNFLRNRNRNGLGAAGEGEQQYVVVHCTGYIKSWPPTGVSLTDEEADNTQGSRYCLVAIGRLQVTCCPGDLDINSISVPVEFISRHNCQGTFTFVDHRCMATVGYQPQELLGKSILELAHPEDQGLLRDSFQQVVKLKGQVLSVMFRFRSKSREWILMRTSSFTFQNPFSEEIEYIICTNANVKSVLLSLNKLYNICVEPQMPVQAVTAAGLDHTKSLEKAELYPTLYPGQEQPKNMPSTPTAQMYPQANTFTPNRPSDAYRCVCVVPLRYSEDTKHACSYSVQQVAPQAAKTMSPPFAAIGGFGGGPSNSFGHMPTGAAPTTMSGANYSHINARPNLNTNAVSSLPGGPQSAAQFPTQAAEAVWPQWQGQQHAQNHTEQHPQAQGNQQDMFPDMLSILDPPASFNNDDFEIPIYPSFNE

[3] = target: T1, Atlantic cod Ahr2a (Gadus morhua, UniProt A0A6H1Z3G8); experiment: cell-based; conditions: for Ahr2a REP25: EC25 of TCDD divided by concentration of PAC giving 25% of TCDD response; for Efficacy compared to TCDD via Ahr2a: Welch's t-test, Supporting Table S6; for Activation of Ahr2a (agonist or not): in vitro transactivation; for fold higher REP25 with Ahr2a compared to Ahr1a: Ahr2a versus Ahr1a
T1 sequence (A0A6H1Z3G8 1-1127): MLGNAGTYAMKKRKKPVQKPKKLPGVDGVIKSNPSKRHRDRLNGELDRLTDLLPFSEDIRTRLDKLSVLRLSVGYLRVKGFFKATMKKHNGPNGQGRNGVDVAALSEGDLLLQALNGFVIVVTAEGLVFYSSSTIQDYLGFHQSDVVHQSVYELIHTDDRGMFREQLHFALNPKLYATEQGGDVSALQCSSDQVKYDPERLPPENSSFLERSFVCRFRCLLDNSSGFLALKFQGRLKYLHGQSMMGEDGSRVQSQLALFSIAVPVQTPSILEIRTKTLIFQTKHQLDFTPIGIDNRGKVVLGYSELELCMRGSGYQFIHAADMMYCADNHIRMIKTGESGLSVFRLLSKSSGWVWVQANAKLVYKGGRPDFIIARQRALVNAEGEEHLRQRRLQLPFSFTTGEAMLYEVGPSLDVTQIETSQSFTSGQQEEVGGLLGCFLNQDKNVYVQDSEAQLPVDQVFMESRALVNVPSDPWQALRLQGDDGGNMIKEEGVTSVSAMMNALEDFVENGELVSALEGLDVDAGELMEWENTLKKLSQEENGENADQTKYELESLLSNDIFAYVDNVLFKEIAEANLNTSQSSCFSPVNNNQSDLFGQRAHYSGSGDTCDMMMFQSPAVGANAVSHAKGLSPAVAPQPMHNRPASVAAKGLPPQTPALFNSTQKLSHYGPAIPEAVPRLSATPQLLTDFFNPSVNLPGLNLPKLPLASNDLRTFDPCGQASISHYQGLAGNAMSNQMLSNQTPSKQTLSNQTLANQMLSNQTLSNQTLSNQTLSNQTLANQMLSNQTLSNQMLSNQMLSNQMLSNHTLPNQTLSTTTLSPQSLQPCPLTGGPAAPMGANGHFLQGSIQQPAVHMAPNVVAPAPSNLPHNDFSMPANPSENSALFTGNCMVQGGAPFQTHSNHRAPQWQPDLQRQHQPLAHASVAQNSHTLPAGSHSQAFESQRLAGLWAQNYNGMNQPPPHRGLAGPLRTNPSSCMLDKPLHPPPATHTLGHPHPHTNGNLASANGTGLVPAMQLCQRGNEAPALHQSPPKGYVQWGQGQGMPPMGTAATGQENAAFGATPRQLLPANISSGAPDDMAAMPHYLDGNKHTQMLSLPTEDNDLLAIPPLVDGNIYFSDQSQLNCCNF

[4] = set-up: method as in PMID 29505926; conditions: cited from earlier work; for agonistic potential, times higher than CHR: from TEF values; for toxic equivalent factor (TEF): toxic potential relative to the toxicity of BAP
[5] = Ahr1a EC50 (nM), COS-7 cells, 24 h exposure
[6] = COS-7, read-out: Ahr1a Relative Emax (%)
[7] = Ahr2a EC50 (nM), COS-7 cells, 24 h exposure
[8] = COS-7, read-out: Ahr2a Relative Emax (%)
[9] = Potency (EC50, nM) Ahr2a, Supplementary Table S5
[10] = percent of maximum efficacy determined for TCDD, COS-7 cells, 24 h exposure, None = no agonistic response significantly different from solvent
[11] = COS-7 cells, 24 h exposure, read-out: Ahr1a EC50
[12] = Supplementary Table S5, read-out: Potency (EC50, nM) Ahr1a
[13] = percent of maximum efficacy determined for TCDD, COS-7 cells, 24 h exposure, None = no agonistic response significantly different from solvent, read-out: Ahr1a Relative Emax (%)
[14] = COS-7 cells, 24 h exposure, read-out: Ahr2a EC50
[15] = Supplementary Table S5, read-out: Potency (EC50, nM) Ahr2a
[16] = percent of maximum efficacy determined for TCDD, COS-7 cells, 24 h exposure, None = no agonistic response significantly different from solvent, read-out: Ahr2a Relative Emax (%)

SMILES	Metabolic activity (cell viability) of exposed COS-7 cells [1]	Ahr1a REP25 [2]	Efficacy compared to TCDD with Ahr1a [2]	Ahr2a REP25 [3]	Efficacy compared to TCDD via Ahr2a [3]	toxic equivalent factor (TEF) [4]	EC50 [2, 11] [nM]	EC50 [2, 12] [nM]	Emax [2, 13] [%]	EC50 [3, 14] [nM]	EC50 [3, 15] [nM]	Emax [3, 16] [%]	fold higher REP25 with Ahr2a compared to Ahr1a [3]	other results
Oc1cccc2c1ccc1c3ccccc3ccc21 [1-COH, Chrysene-1-ol]	slight reduction in metabolic activities	0.0045	higher efficacies (superefficacies) than TCDD	0.0077	lower efficacies in comparison to TCDD	–	–	–	–	–	–	–	–	EC50 [2, 5]: 485 nM; Emax [2, 6]: 116%; Emax ([2]; COS-7, read-out: Efficacy (Emax, %) Ahr1a): 116%; EC50 ([2]; Potency (EC50, nM) Ahr1a, Supplementary Table S5): 485 nM; EC50 [3, 7]: 633 nM; Emax [3, 8]: 72.8%; EC50 [3, 9]: 633 nM
Cc1cccc2c1ccc1c3ccccc3ccc21 [1-MC, 1-Methylchrysene]	–	0.0070	lower efficacies than TCDD	0.022	lower efficacies in comparison to TCDD	0.1	–	–	–	–	–	–	–	agonistic potential, times higher than CHR [4]: 10 times; EC50 [2, 5]: 175 nM; Emax [2, 6]: 45.8%; EC50 [3, 7]: 172 nM; Emax [3, 8]: 43.6%; EC50 [3, 9]: 172 nM
Cc1cc2ccc3ccccc3c2cc1C [2,3-DMP, 2,3-Dimethylphenanthrene]	slight reduction in metabolic activities	–	–	–	–	–	–	–	–	–	–	–	–	Activation of Ahr1a (agonist or not) [2]: did not activate; Ahr1a Relative Emax (%) [2, 10]: None; Activation of Ahr2a (agonist or not) [3]: did not activate; Ahr2a Relative Emax (%) [3, 10]: None
Oc1ccc2ccc3c4ccccc4ccc3c2c1 [3-COH, Chrysene-3-ol]	slight reduction in metabolic activities	0.00257	lower efficacies than TCDD	0.0099	lower efficacies in comparison to TCDD	–	345	345	86.5	275	274	66.1	–	–
COc1ccc2ccc3c4ccccc4ccc3c2c1 [3-MOC, 3-Methoxychrysene]	slight reduction in metabolic activities	0.0056	lower efficacies than TCDD	0.0588	lower efficacies in comparison to TCDD	–	195	–	66.6	98.6	–	80.8	5- to 10 fold	–
COc1cccc2ccc3c4ccccc4ccc3c12 [4-MOC, 4-Methoxychrysene]	slight reduction in metabolic activities	0.033	lower efficacies than TCDD	0.206	–	–	43.8	–	83.8	30.9	–	93.7	5- to 10 fold	–
Cc1cc2ccccc2c2ccc3ccccc3c12 [5-MC, 5-Methylchrysene]	slight reduction in metabolic activities	0.00494	efficacies similar to that of TCDD	0.0495	lower efficacies in comparison to TCDD	1.0	596	596	90.1	193	193	68.4	5- to 10 fold	agonistic potential, times higher than CHR [4]: 100 times
Cc1cc2c3ccccc3ccc2c2ccccc12 [6-MC, 6-Methylchrysene]	slight reduction in metabolic activities	0.00064	efficacies similar to that of TCDD	0.0031	–	–	–	3540	90.6	2260	88.8	89.8	5- to 10 fold	–
c1ccc2c(c1)ccc1c3ccccc3ccc21 [CHR, Chrysene]	–	0.00052	lower efficacies than TCDD	–	lower efficacies in comparison to TCDD	0.01	481	481	40.8	–	3440	–	–	Activation of Ahr1a (agonist or not) [2]: solely activate Ahr1a; Emax ([3]; COS-7, Supplementary Table S5, read-out: Efficacy (Emax, %) Ahr2a): 3.6%; Activation of Ahr2a (agonist or not) [3]: solely activate Ahr1a; Ahr2a Relative Emax (%) [3, 10]: None
